This passage reports MIC results from patent US5116834A, “Quinolinecarboxylic acid antibacterial agents” (Warner-Lambert Company, priority 1991, dated 1992).

Values after ≈ are worked out from the molar mass of the structure shown.

Common to all, as to assay: In vitro antibacterial activity, microtitration dilution method (MIC)
Assay type in all cases: cell-based

Experiment [1] has as its system Pseudomonas aeroginosa UI-18. The note with it: UI18, read-out: Minimal Inhibitory Concentration (MIC). The source says: (§1) The compounds of the invention display anti-bacterial activity when tested by the microtitration dilution method as described in Heifetz, et al, Antimicr. Agents & Chemoth., 6, 124 (1974), which is incorporated herein by reference.
(§2) By use of the above reference method, the following minimum inhibitory concentration value (MICs in μg/mL) shown in Table I were obtained for representative compounds of the invention.

The test system of experiment [2] is Enterobacter cloacae MA 2646. The following applies: MA2646, read-out: Minimal Inhibitory Concentration (MIC).
Source text: as §1, §2

A further experiment deals with Escherichia coli Vogel. The following applies: read-out: Minimal Inhibitory Concentration (MIC).
Source text: as §1, §2

Experiment [3] deals with Staphylococcus aureus UC-76. The following applies: UC76, read-out: Minimal Inhibitory Concentration (MIC).
Source text: as §1, §2

Another experiment relates to Escherichia coli H56. The following applies: read-out: Minimal Inhibitory Concentration (MIC).
Source text: as §1, §2

For another experiment, the system named is Proteus rettgeri M 1771. The note with it: Providencia rettgeri, M1771, read-out: Minimal Inhibitory Concentration (MIC).
Source text: as §1, §2

Experiment [4] deals with Streptococcus faecalis MGH-2. The following applies: Enterococcus faecalis, MGH2, read-out: Minimal Inhibitory Concentration (MIC).
Source text: as §1, §2

Experiment [5] has as its system Streptococcus pyogenes C-203. The note with it: C203, read-out: Minimal Inhibitory Concentration (MIC).
Source text: as §1, §2

Experiment [6] concerns Klebsiella pneumoniae MGH-2. The note with it: MGH2, read-out: Minimal Inhibitory Concentration (MIC). From the text: (§3) The compounds of the invention display anti-bacterial activity when tested by the microtitration dilution method as described in Heifetz, et al, […]. Agents & Chemoth., 6, 124 (1974), which is incorporated herein by reference. By use of the above reference method, the following minimum inhibitory concentration value (MICs in μg/mL) shown in Table I were obtained for representative compounds of the invention.

Experiment [7] relates to Streptococcus pneumoniae SV-1. The note with it: SV1, read-out: Minimal Inhibitory Concentration (MIC).
Source text: as §3

Experiment [8] concerns Staphylococcus aureus H228. The following applies: read-out: Minimal Inhibitory Concentration (MIC).
Source text: as §3

As to `C=Cc1c(N2CC[C@@H](CNCC)C2)c(F)cc2c(=O)c(C(=O)O)cn(C3CC3)c12` [Ex. 3, 1-Cyclopropyl-8-ethenyl-7-[3(S)-(ethylamino)methyl-1-pyrrolidine]-6-fluoro-1,4-dihydro-4-oxo-3-quinolinecarboxylic acid], the MIC in [1] was found to be 3.1 µg/mL (≈ 7.76 µM); in [2] it was 0.2 µg/mL (≈ 0.501 µM); with Escherichia coli Vogel, 0.1 µg/mL (≈ 0.25 µM); in experiment [3], 0.003 µg/mL (≈ 0.00751 µM); with Escherichia coli H56, 0.1 µg/mL (≈ 0.25 µM); in the experiment on Proteus rettgeri M 1771, 0.4 µg/mL (≈ 1 µM). Besides, the MIC in experiment [4] worked out at 0.013 µg/mL (≈ 0.0325 µM); in experiment [5], 0.013 µg/mL (≈ 0.0325 µM); in experiment [6], 0.4 µg/mL (≈ 1 µM); in experiment [7], 0.003 µg/mL (≈ 0.00751 µM); in experiment [8], 0.006 µg/mL (≈ 0.015 µM).

In the case of `C=Cc1c(N2CCNCC2)c(F)cc2c(=O)c(C(=O)O)cn(C3CC3)c12` [Ex. 2, 1-Cyclopropyl-8-ethenyl-6-fluoro-1,4-dihydro-4-oxo-7-(1-piperazinyl)-3-quinolinecarboxylic acid], the MIC came out at 1.6 µg/mL (≈ 4.48 µM) in experiment [1]; 0.1 µg/mL (≈ 0.28 µM) in experiment [2]; 0.1 µg/mL (≈ 0.28 µM) with Escherichia coli Vogel; 0.1 µg/mL (≈ 0.28 µM) in [3]; 0.05 µg/mL (≈ 0.14 µM) in the experiment with Escherichia coli H56; 0.4 µg/mL (≈ 1.12 µM) with Proteus rettgeri M 1771. In addition, the MIC in experiment [4] worked out at 0.4 µg/mL (≈ 1.12 µM); in experiment [5], 0.4 µg/mL (≈ 1.12 µM); in experiment [6], 0.2 µg/mL (≈ 0.56 µM); in experiment [7] it was 0.4 µg/mL (≈ 1.12 µM); in experiment [8], 0.4 µg/mL (≈ 1.12 µM).

Regarding `C=Cc1c(N2CCNC(C)C2)c(F)cc2c(=O)c(C(=O)O)cn(C3CC3)c12` (stereo not drawn) [Ex. 1, 1-Cyclopropyl-8-ethenyl-6-fluoro-1,4-dihydro-7-(3-methyl-1-piperazinyl)-4-oxo-3-quinolinecarboxylicacid], the MIC in experiment [1] came out at 1.6 µg/mL (≈ 4.31 µM); in experiment [2], 0.1 µg/mL (≈ 0.269 µM); in the experiment on Escherichia coli Vogel, 0.1 µg/mL (≈ 0.269 µM); in experiment [3], 0.1 µg/mL (≈ 0.269 µM); in the experiment with Escherichia coli H56 it was 0.05 µg/mL (≈ 0.135 µM); with Proteus rettgeri M 1771, 0.4 µg/mL (≈ 1.08 µM). Further, the MIC in experiment [4] stood at 0.4 µg/mL (≈ 1.08 µM); in experiment [5] it was 0.2 µg/mL (≈ 0.538 µM); in [6], 0.2 µg/mL (≈ 0.538 µM); in [7] it was 0.2 µg/mL (≈ 0.538 µM); in [8], 0.2 µg/mL (≈ 0.538 µM).
